Measurements published in patent publication US20220008298A1, “OLEOGELS IN UV ABSORBER COMPOSITIONS” (BASF SE, priority 2011, published 2022).

Legend:
[1] = Log P octanol/water of the oil; assay type: physicochemical
Description: (§1) The smaller the interfacial tension of the oil towards water, the more polar it is. This is in line with the values of Log Poctanol/water.

[2] = interfacial tension of the oil to water; assay type: physicochemical
Description: as §1

Log Poctanol/water [1] | Interf. tension to water, γ [2] [mN/m] | Structure (SMILES)
6.8 | 29.1 | CCCCC(CC)COC(=O)OCC(CC)CCCC (stereo not shown) [Diethylhexyl Carbonate]
3.9 | 14.3 | CCCCOC(=O)CCCCC(=O)OCCCC [Dibutyl Adipate]
